Experimental data: US10111854B2, “Synthesis and use of amine-containing flavonoids as potent anti-leishmanial agents” (The Hong Kong Polytechnic University, priority 2014, dated 2018)
Structures can show the parent of a compound that is named as a salt.

Legend:
[1] = tested on: L. amazonensis LV78 promastigotes; assay: Anti-promastigote activity (MTS assay), L. amazonensis LV78; format: cell-based; settings: 72 hours
Outline: (§1)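 Promastigotes (1×10^5 per well) in Schneider's medium pH 6.9 with 10% FBS, exposed to serial compound concentrations for 72 h at 27 °C. Viability by MTS/PMS reduction over 4 h, OD 490 nm; IC50 derived.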

[2] = tested on: L. major FV1 promastigotes; assay: Anti-promastigote activity (MTS assay), L. major FV1; format: cell-based; settings: 72 hours
Outline: as §1

[3] = tested on: L. donovani HU3 promastigotes; assay: Anti-promastigote activity (MTS assay), L. donovani HU3; format: cell-based; settings: 72 hours
Outline: as §1

[4] = tested on: L. donovani Ld39 promastigotes; assay: Anti-promastigote activity (MTS assay), L. donovani Ld39; format: cell-based; settings: 72 hours
Outline: as §1

mouse fibroblast (L929) = assay: Cytotoxicity, L929 fibroblasts; format: cell-based; settings: mouse fibroblast L929
Protocol: (§2) IC50 values of known antileishmanials and the amine-containing flavonoid monomers of the present invention to promastigotes (L. amazonensis LV78, L major FV1, L. donovani HU3, L. donovani 39), macrophages (Raw 264.7 and PEM) and mouse fibroblast (L929) were determined. The anti-promastigotes activities and cytotoxicity of the amine-containing flavonoid monomers of the invention are shown in Table 1.

[5] = tested on: L. amazonensis LV78 amastigotes; assay: Anti-amastigote activity in infected PEM, L. amazonensis LV78; format: cell-based; settings: for IC50: infected PEM, 3 days, Giemsa; for Selective index (a)/(b): IC50 RAW264.7 over IC50 L. amazonensis LV78 amastigotes
Outline: (§3)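 Read-out was Giemsa-stained counts of amastigotes per 100 macrophages, used for IC50, after 72 h drug exposure at 37 °C of mouse peritoneal macrophages previously infected with late-log promastigotes.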

[6] = tested on: L. donovani HU3 amastigotes; assay: Anti-amastigote activity in infected PEM, L. donovani HU3; format: cell-based; settings: infected PEM, 3 days, Giemsa, SSG-sensitive
Outline: as §3

[7] = Cytotoxicity, L929 fibroblasts; format: cell-based, mouse; settings: mouse
Protocol: as §2

[8] = Cytotoxicity, peritoneal elicited macrophages (PEM); format: cell-based, mouse; settings: mouse, Cytotoxicity IC50, PEM
[9] = Pharmacokinetics study of FM09, FM09h and FM05b, iv and oral; format: in vivo, Balb/c mice; settings: 50 mg/kg oral; for bioavailability: Balb/c, mouse, plasma, 10 mg/kg iv, dose-adjusted AUC oral over iv, read-out: Bioavailability (F)
Protocol: Animals were sacrificed at the indicated time point and plasma level of the corresponding flavonoids were determined using LC-MSMS. IC50 of corresponding flavonoids are indicated. Bioavailability (F) was calculated by dividing the dose-adjusted area under curve (AUC) of that of orally-fed over intravenously administered animals.

[10] = tested on: L. amazonensis and L. donovani HU3 promastigotes and amastigotes; assay: Anti-promastigote and anti-amastigote activity of FM09, FM01 and FM05 derivatives; format: cell-based, Leishmania; settings: stage and strain not specified; read-out: IC50, anti-promastigote and anti-amastigote activity (Table 3C)
Protocol: Derivatives of FM09, FM01 and FM05 were synthesized and their anti-promastigote and anti-amastigote activity were determined (Table 3C). Many amine-containing flavonoid monomers have IC50 less than 5 μM, including FM09a, FM09b, FM09c, FM09e, FM09h, FM09i, FM09k, FM09l, FM01b and FM05b.

[11] = tested on: peritoneal elicited macrophages (PEM); assay: Cytotoxicity, peritoneal elicited macrophages (PEM); format: cell-based, mouse
[12] = Pharmacokinetics of FM05 hydrochloride salt, oral; format: in vivo, Balb/c mice; settings: mouse, in vivo, po, 42 mg/kg
Protocol: Based on the result of the preliminary in vivo study, FM05 hydrochloride salt was selected for further investigation. FM05 hydrochloride salt was dissolved in saline at 4 mg/ml and administered to male balb/c at 42 mg/kg. Blood plasma samples were collected at various time points for pharmacokinetics analysis (n=2 to 3 for each time point).

[13] = tested on: L. braziliensis UA847 amastigotes; assay: Anti-amastigote activity in infected PEM, L. braziliensis UA847; format: cell-based; settings: Leishmania braziliensis, 72 h, 3 days, Giemsa, read-out: Anti-amastigote activity IC50, L. baziliensis UA847
Protocol: (§4) Mouse peritoneal elicited macrophages (PEM) were obtained as previously described (2). A round cover slip (12 mm in diameter) was placed into each well of 24-well culture plate. Mouse PEM were resuspended in supplemented DMEM media containing 10% heat inactivated FBS (v/v), 100 U/mL penicillin and 100 μg/mL streptomycin and seeded into each well at a cell density of 1×10^5 cells per 500 μL. Macrophages were allowed to attach overnight. Non-adherent cells were removed by gentle washing with un-supplemented DMEM media twice. Adherent macrophages were infected with late-log promastigotes at a parasite-to-macrophage ratio of 20:1 overnight at 37° C. with 5% CO2. Non-internalized promastigotes were removed by washing twice with un-supplemented DMEM media. Infected macrophages were further incubated in 500 μL of supplemented DMEM media in the presence or absence of FM for 72 hours at 37° C. After incubation, cover slips were stained with Giemsa and the percentage of macrophages infected and number of amastigotes per 100 macrophages was enumerated.
(§5) PEM cells were infected with late-log promastigotes (L. amazonensis LV78, L. braziliensis UA847, L. donovani HU3, L. donovani 39) for 24 hr at 37° C. Infected macrophages were then treated with various antileishmanials and incubated for 3 days at 37° C. After 3 days, the cover slips were stained with Giemsa. The number of amastigotes per 100 macrophages were determined and used to calculate IC50 values.

[14] = tested on: L. donovani Ld39 amastigotes (SSG-resistant); assay: Anti-amastigote activity in infected PEM, L. donovani Ld39; format: cell-based; settings: for IC50: Leishmania donovani, 72 h, infected PEM, 3 days, Giemsa, SSG-resistant
Outline: as §3

[15] = tested on: amastigotes (L. amazonensis LV78, L. braziliensis UA847, L. donovani HU3, L. donovani 39); assay: Anti-amastigote activity, strain not given; format: cell-based; settings: strain not specified; visceral and cutaneous Leishmania; read-out: IC50 against amastigotes
Protocol: as §4, §5

Structure (SMILES)	IC50 [1] [µM]	IC50 [3] [µM]	IC50 [5] [µM]	IC50 [6] [µM]	IC50 ([1]; Leishmania amazonensis) [µM]	IC50 ([3]; Leishmania donovani) [µM]	IC50 ([5]; Leishmania amazonensis, 72 h) [µM]	IC50 ([6]; Leishmania donovani, 72 h) [µM]	IC50 (mouse fibroblast (L929)) [µM]	IC50 [7] [µM]	IC50 [8] [µM]	further results
O=c1cc(-c2ccc(OCCOCCN(Cc3ccccn3)Cc3ccccn3)cc2)oc2ccccc12 [FM09.HCl]	0.7	0.2 ± 0.1	0.4	1.8	–	–	–	–	20.2 ± 8.4	–	–	IC50 [2]: 1.2 ± 0.3 µM; IC50 [4]: 0.5 ± 0.1 µM
O=c1cc(-c2ccc(OCCOCCN(Cc3cccnc3)Cc3cccnc3)cc2)oc2ccccc12 [FM09b.HCl]	8.08 ± 1.99	12.9 ± 7.32	> 10	> 10	–	–	–	–	75.1 ± 13.6	–	–	–
O=c1cc(-c2ccc(OCCN3CCN(Cc4ccncc4)CC3)cc2)oc2ccccc12 [FM01.HCl]	12.6 ± 0.9	–	> 9	–	–	–	–	–	33.7	–	–	IC50 [2]: 6.7 ± 1.9 µM; IC50 [4]: 1.3 ± 0.3 µM; IC50 [11]: 55.9 µM
COc1ccnc(CN(CCOCCOc2ccc(-c3cc(=O)c4ccccc4o3)cc2)Cc2nccc(OC)c2OC)c1OC [FM09aHCl]	0.77 ± 0.19	0.99 ± 0.19	0.35 ± 0.01	0.5 ± 0.02	–	–	–	–	12.9 ± 2.4	–	–	–
O=c1cc(-c2ccc(OCCOCCN(Cc3ncccc3F)Cc3ncccc3F)cc2)oc2ccccc12 [FM09c.HCl]	2.66 ± 0.3	4.97 ± 1.04	1.45 ± 0.31	2.9 ± 1.49	–	–	–	–	39 ± 6.1	–	–	–
Cl.O=c1cc(-c2ccc(OCCC3CCN(Cc4ccncc4)CC3)cc2)oc2ccccc12 [FM05.HCl]	6 ± 0.5	–	–	–	–	–	–	–	–	–	–	IC50 [2]: 3.5 ± 0.9 µM; IC50 [4]: 1.2 ± 0.5 µM; IC50 [11]: 23.8 µM; IC50 ([5]; listed as FM05.HCI): 6.9 ± 0.9 µM; AUC(0-7 hr) [12]: 83089 ng·min/mL; Cmax (obs) [12]: 312.8 ng/mL; Half-life (Distribution and absorption) [12]: 0.417 h; Half-life (Elimination) [12]: 3.37 h; MRT (area) [12]: 5.35 h; Tmax (obs) [12]: 2 h
O=c1cc(-c2ccc(OCCOCCNCc3ccccn3)cc2)oc2ccccc12 [FM09m.HCl]	14.3 ± 3.3	18.2 ± 2.13	7.86 ± 2.15	> 10	–	–	–	–	–	–	–	IC50 [11]: 28.3 µM
CCCCCCCCCCCCCCCCOP(=O)([O-])OCC[N+](C)(C)C [Miltefosine, reference compound]	–	–	–	–	32.7 ± 26.9	5.1 ± 1.4	32.7 ± 26.9	–	–	–	75.3 ± 9.4	IC50 ([2]; Leishmania major): 9.7 ± 1.2 µM; IC50 ([4]; Leishmania donovani): 17.3 ± 2.1 µM; Selective index (a)/(b) [5]: 0.6; IC50 [13]: 13 ± 1.3 µM; Selective index (a)/(c) ([14]; IC50 RAW264.7 over IC50 L. donovani Ld39 amastigotes): 1.3; IC50 [14]: 16 ± 6.4 µM

Further lines, with some results ahead:

IC50 [1] [µM]	IC50 [3] [µM]	IC50 [5] [µM]	IC50 [6] [µM]	IC50 ([1]; Leishmania amazonensis) [µM]	IC50 ([3]; Leishmania donovani) [µM]	IC50 ([5]; Leishmania amazonensis, 72 h) [µM]	IC50 ([6]; Leishmania donovani, 72 h) [µM]	Structure (SMILES)	IC50 (mouse fibroblast (L929)) [µM]	IC50 [7] [µM]	IC50 [8] [µM]	further results
–	–	–	–	0.57 ± 0.17	0.89 ± 0.33	0.3 ± 0.06	0.7 ± 0.37	COc1ccnc(CN2CCC(CCOc3ccc(-c4cc(=O)c5ccccc5o4)cc3)CC2)c1OC [FM05b, 2-(4-(2-(1-((3,4-dimethoxypyridin-2-yl)methyl)piperidin-4-yl)ethoxy)phenyl)-4H-chromen-4-one]	–	10.6 ± 1.13	5.1	Time post oral feeding at which plasma level remains higher than respective IC50 [9]: 420 min; bioavailability [9]: 36%; IC50 [10]: < 5 µM
–	–	–	–	0.47 ± 0.07	1.09 ± 0.09	0.29 ± 0.05	0.3 ± 0.04	Cc1c(OCC(F)(F)F)ccnc1CN(CCOCCOc1ccc(-c2cc(=O)c3ccccc3o2)cc1)Cc1nccc(OCC(F)(F)F)c1C [FM09h, 2-(4-(2-(2-(bis((3-methyl-4-(2,2,2-trifluoroethoxy)pyridin-2-yl)methyl)amino)ethoxy)ethoxy)phenyl)-4H-chromen-4-one]	–	3.62 ± 0.51	6.4	Time post oral feeding at which plasma level remains higher than respective IC50 [9]: 180 min; bioavailability [9]: 5%; IC50 [10]: < 5 µM
–	–	–	–	> 100	66.2 ± 11	> 10	> 9	O=C(NCCOCCOc1ccc(-c2cc(=O)c3ccccc3o2)cc1)c1ccncc1 [FM03, N-(2-(2-(4-(4-oxo-4H-chromen-2-yl)phenoxy)ethoxy)ethyl)isonicotinamide]	–	> 100	–	IC50 ([2]; Leishmania major): > 100 µM; IC50 ([4]; Leishmania donovani): > 100 µM; IC50 [13]: > 10 µM; IC50 [14]: > 10 µM
–	–	–	–	17.5 ± 3.2	9.8 ± 2.5	1.3 ± 0.6	> 10	O=c1cc(-c2ccc(OCCOCCN(Cc3ccccc3)Cc3ccccc3)cc2)oc2ccccc12 [FM19, 2-(4-(2-(2-(dibenzylamino)ethoxy)ethoxy)phenyl)-4H-chromen-4-one]	–	55.1 ± 7.2	–	IC50 ([2]; Leishmania major): 21.6 ± 4.2 µM; IC50 ([4]; Leishmania donovani): > 100 µM; Selective index (a)/(b) [5]: >76.9; IC50 [13]: < 0.37 µM; IC50 [14]: > 10 µM; IC50 [15]: < 5 µM
–	–	–	–	0.08 ± 0.01	0.18 ± 0.07	0.27 ± 0.02	0.3 ± 0.05	COc1c(C)cnc(CN(CCOCCOc2ccc(-c3cc(=O)c4ccccc4o3)cc2)Cc2ncc(C)c(OC)c2C)c1C [FM09i, 2-(4-(2-(2-(bis((4-methoxy-3,5-dimethylpyridin-2-yl)methyl)amino)ethoxy)ethoxy)phenyl)-4H-chromen-4-one]	–	2.28 ± 0.83	4.5	IC50 [10]: < 5 µM
–	–	–	–	> 100	38.8 ± 6.9	> 10	–	CS(=O)(=O)NCCOCCOc1ccc(-c2cc(=O)c3ccccc3o2)cc1 [FM07, N-(2-(2-(4-(4-oxo-4H-chromen-2-yl)phenoxy)ethoxy)ethyl)methanesulfonamide]	–	26 ± 4.1	–	IC50 ([2]; Leishmania major): > 100 µM; IC50 ([4]; Leishmania donovani): 21.4 ± 2.6 µM; IC50 [13]: > 10 µM; IC50 [14]: > 10 µM
–	–	–	–	0.16 ± 0.05	1.06 ± 0.1	0.32 ± 0.02	0.3 ± 0.04	COCCCOc1ccnc(CN(CCOCCOc2ccc(-c3cc(=O)c4ccccc4o3)cc2)Cc2nccc(OCCCOC)c2C)c1C [FM09k, 2-(4-(2-(2-(bis((4-(3-methoxypropoxy)-3-methylpyridin-2-yl)methyl)amino)ethoxy)ethoxy)phenyl)-4H-chromen-4-one]	–	4.7 ± 0.71	5.3	IC50 [10]: < 5 µM
